Measurements taken from patent publication US20020197281A1, “Composition cantaining a peptide and a pigment and the use thereof in darkening the skin” (priority 2001, published 2002).

Columns and labels:
[1] = tested on: Dark skinned Yucatan microswine; assay: Induced pigmentation in vivo, F&M-stained skin sections of topically treated swine; design: key: −1: Slight lightening; 0: No change; 1: Minimal increase in pigment deposition; 2: Increased pigment deposition; 3: Strong increase in pigment deposition, some increase in caps; 4: Strong increase in pigment deposition, strong increase in caps; conditions: topical twice a day, five days/week, eight or nine weeks; peptides 250 or 500 μM, pigments 1% or 5% (W/V), positive controls 1% (W/V); average of all sites of responsive swine
Description: Compositions of the present invention were tested for their ability to induce in vivo pigmentation in skin cells in the following experiment. Dark skinned Yucatan microswine (Charles River, Portland, Me.) were housed in appropriately sized cages in an environmentally controlled room with a 12-hour light-12-hour dark photoperiod and supplied with food and water ad libitum. Animal care was based on the “Guide for the Care and Use of Laboratory Animals”, NIH Publication No. 85-23. Twenty μl of test peptides were applied topically, twice a day, five days/week, for eight or nine weeks, on the dorsum of the swine. Treatments of individual swine were always arranged in a head to tail order on one side, and in a tail to head order on the other side of the animal. Biopsies were taken using standard techniques.
Sections from the skin biopsies were stained with Hematoxylin and Eosin (H&E), or with Fontana-Mason (F&M), using standard procedures (Sheenan D C, Hrapckak B B, eds., Theory and Practice of Histo-technology. p. 223, 277, The C.V. Mosby Co., St. Louis (1980)). F&M staining identifies silver nitrate reducing molecules. In skin, this non-specific stain identifies primarily melanin. At least three sections per biopsy were processed. Each experiment was repeated at least three times.
Swine were treated with either: the known skin darkening agent forskolin (Sigma) or with a Coleus forskoli extract (ATZ Naturals, Englewood Cliffs, N.J.) which contains forskolin, as a positive control at 1% (W/V); pigments at 1% or 5% (W/V); peptides of this invention at 250 μM or 500 μM; and combinations of such peptides at 250 μM or 500 μM with pigments at 1% (W/V). Pigments tested include pigmented natural extracts (i.e., Bearberry extract and Hedychium spicatum extract) and synthetic compounds (i.e., the soluble melanin compound Melasyn-100™). These test compounds were dissolved in ethanol: propylene glycol 70:30 (v/v). […]
F&M-stained histological skin sections were evaluated for the change in pigment deposition within the treated site. […]

[2] = tested on: keratinocyte-melanocyte co-cultures (Human HaCaT keratinocytes, Human primary melanocytes); assay: Induced pigmentation in keratinocyte-melanocyte co-cultures (DOPA staining, computerized image analysis); assay type: cell-based; conditions: three daily treatments; for Mean area: DOPA-stained relative pigmented area; for % increase: normalized to control
Description: The peptides Peptide 1 and Peptide 3 and various pigments were tested, alone or in combination, with keratinocyte-melanocyte cultures for their effect on cell pigmentation, using DOPA staining and computerized image analysis. The pigments that were tested were the pigmented natural extracts Bearberry extract from Alban Muller International (Vincennes, France) and Hedychium spicatum extract sold as Kapur Kachali from Amsar Private Limited (Indore, India), copper chloride from Sigma (St. Louis, Mo.) and the water-soluble melanin derivatives Melasyn-100™ from San-mar laboratories, Inc. (Elmsford, N.Y.) and MelanZe™ from Zylepsis (Ashford, Kent, United Kingdom). The pigments were tested at concentrations ranging from 0.0001%(W/V) to 1%(W/V) and the peptides were tested at 50 μM.
The assay was conducted in the following manner. Human HaCaT keratinocytes (Boukamp P., et al., J Cell Biol 106, 3, 761-771 (1988)) were maintained in Dulbecco's Modified Eagle's Medium (DMEM) containing 10% fetal bovine serum (FBS), 4.5 mg/ml glucose, 2 mM L-glutamine, 50 U/ml penicillin and 50 μg/ml streptomycin (Life Technologies, Gaithersburg, Md.). Cells were maintained at <80% confluency in 5% CO2 (v/v) and were used in experimental procedures up to culture passage 15. Human primary melanocytes (Clonetics, San Diego, Calif. or Cascade Biologics, Portland, Oreg.) were maintained according to manufacturer's instructions. To establish keratinocyte-melanocyte co-cultures, 6×10^4 melanocytes were plated in each well of a 24 well plate and maintained according to manufacturer's instructions.
Melanocytes were rinsed three times with melanocyte growth media without PMA and keratinocytes (6×10^4) were plated to establish the co-cultures in this media. Co-cultures were treated for three days with test peptides and pigments, and assayed for cell viability and pigment level on the forth day. Cell viability was assayed using alamarBlue™ (Acumed International, West Lake, Ohio) following manufacturer's instructions. No change in viability was observed following three daily treatments with all tested material. All in vitro experiments were performed in triplicates, and were repeated at least three times.
Following three daily treatments, the co-cultures were briefly fixed (10% buffered formalin from Fisher Scientific, 15 minutes), washed three times with Phosphate-buffered saline (PBS, from Life Technologies) and stained with L-3,4-Dihydroxyphenylalanine (DOPA, from Sigma, St. Louis, Mo.) 0.1% in PBS, for 5 hours at 37° C., followed by two PBS washes and formalin (10%, overnight) fixation. DOPA is a substrate for tyrosinase, therefore an increase in staining represents increased tyrosinase activity and pigment production. DOPA-stained monolayers were used for image analysis. All images were obtained and analyzed with Image Pro Plus 3.0 software (Media Cybernetics, Silver Spring, Md.). Parameters measured were surface area of stained material within melanocyte and keratinocytes and the total surface area of the cells in the culture, and the relative pigmented area was calculated. A value of 100% was assigned to untreated controls, and values of treatment groups were normalized to their relevant controls. In all experiments there was no difference between PBS-treated cells and untreated controls. Data are presented with standard deviation (SigmaPlot® 5.0, SPSS Science, Chicago, Ill.).
Forskolin (Sigma, St. Louis, Mo.), a known inducer of pigmentation, served as a positive control and a reference point. Forskolin was administered at 1% (W/V).

For “H2-Ser-Leu-Ile-Gly-Arg-Leu-NH2 (H-SLIGRL-NH2) [Peptide 3]”, the “Score (change in pigment deposition)” value [1] was 2-3.

In the case of “H2-Leu-Ile-Gly-Arg-NH2 (H-LIGR-NH2) [Peptide 1]”, the Mean area ([2]; peptide alone 50 μM) is reported as 0.080, the “% increase” value ([2]; peptide alone 50 μM) is reported as 279% and the “Score (change in pigment deposition)” value [1] is reported as 1-2.

For C=C[C@@]1(C)CC(=O)[C@]2(O)[C@@]3(C)[C@@H](O)CCC(C)(C)[C@@H]3[C@H](O)[C@H](OC(C)=O)[C@@]2(C)O1 [Forskolin, reference compound], the Mean area ([2]; positive control 1% (W/V)) was 0.067, the “% increase” value ([2]; positive control 1% (W/V)) was 231.0% and the “Score (change in pigment deposition)” value [1] was 1.

For [Cl][Cu][Cl] [CuCl2, copper chloride], the Mean area ([2]; pigment alone 0.001% (W/V)) was 0.064 and the “% increase” value ([2]; pigment alone 0.001% (W/V)) was 220%.
